One assay addresses T1, ShHTL7 (Striga hermonthica, UniProt A0A0M3PNA2).
T1 sequence (A0A0M3PNA2 1-271): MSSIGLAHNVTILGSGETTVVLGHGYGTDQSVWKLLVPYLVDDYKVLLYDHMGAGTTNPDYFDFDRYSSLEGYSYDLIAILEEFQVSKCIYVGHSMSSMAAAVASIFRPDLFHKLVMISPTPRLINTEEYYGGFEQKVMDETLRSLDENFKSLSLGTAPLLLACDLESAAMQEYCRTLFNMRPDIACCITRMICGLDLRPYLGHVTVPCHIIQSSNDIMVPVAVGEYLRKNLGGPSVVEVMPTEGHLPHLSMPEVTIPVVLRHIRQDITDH
The assay can be described thus: Intrinsic tryptophan fluorescence assay, ShHTL7. It is filed as binding. From the text:
Striga hermonthica ShHTL7 cDNA was used, GenBank accession KR013127, kindly provided by Tsuyoshi Ota, The University of Tokyo, Japan. Arabidopsis D14 (AtD14) cDNA, GenBank accession AY097402, was synthesized and cloned into pUC57 (GenScript). ShHTL7 and OsD14 cDNAs were amplified by RT-PCR using the primers shown in Supplementary Table S2, digested with BamHI and XhoI, and ligated into BamHI/XhoI-digested pGEX-6P-1 expression vector (GE Healthcare). […] The plasmids were then transformed into E. coli BL21 (DE3) cells. The cells were grown in LB broth containing ampicillin ([…]), incubated at 37 °C until OD600 of 0.6 and induced with 0.1 mM isopropyl-β-D-thiogalactopyranoside at 16 °C for 16 h. Harvested cells were resuspended in lysis buffer: 50 mM Tris–HCl (pH 8.0), 200 mM NaCl, 0.5% Tween-20 and 2 mM dithiothreitol (DTT). After sonication on ice for 10 min, the lysate was centrifuged at 75 000 g for 30 min at 4 °C. Supernatant was allowed to bind to glutathione–sepharose beads (GE Healthcare) for 2 h at 4 °C, washed 3 times with buffer (50 mM Tris-HCl (pH 8.0), 200 mM NaCl, 2 mM DTT), and eluted by cleaving the GST moiety with PreScission™ Protease (GE Healthcare) at 4 °C overnight. […]

The subject of a further assay is rice d3 mutant. The assay can be described thus: Rice micro tillering bioassay, d3 mutant. It is filed as in vivo. As to conditions: 2.5 μM, hydroponic culture; average of four tillers per plant in treated and untreated samples. The method, then:
Rice seeds (WT, d3, d10) were surface-sterilized by washing with 70% ethanol for 1 min and then with 2.5% sodium hypochlorite for 15 min. Seeds were then rinsed thoroughly with sterile MilliQ water and incubated in water for 2 d at 30 °C in the dark. Pre-germinated seeds were transferred to filter papers containing half-strength MS medium in 90 mm Petri dishes and incubated at 30 °C under fluorescent white light (130–180 μmol m^−2 s^−1) for 1 week. Seven-day-old seedlings were transferred to 50 ml falcon tubes (one seedling per tube) containing modified half-strength Hoagland nutrient solution and grown in greenhouse. Plants were treated with MPs at 2.5 μM to 2.5 × 10^–7 μM, using GR24 as positive control. The compounds were applied six times, twice a week. Number of tillers per plant, plant height and fresh biomass were measured at final harvest.

Another assay has as its system rice leaf segments. Kind of assay: Dark-induced leaf senescence. On the set-up: species or system O. sativa, var. Shiokari. As to conditions: for transcript level of senescence-associated gene Osl20 / transcript level of senescence-associated gene Osl295: after 5 d of treatment; for change in color of leaf segments, earlier than the control / chlorophyll content of leaf segments / ion leakage of leaf segments compared with the control: dark; for change in color of leaf segments, earlier than the control: 30 °C, change on the third day after treatment; for chlorophyll content of leaf segments: on the third day; for ion leakage of leaf segments compared with the control: sixth and seventh day, no difference in the first 5 d. The method, then:
One-week-old rice (O. sativa, var. Shiokari) seedlings were established as mentioned above. Uniform seedlings were transferred to 50 ml tubes containing half-strength Hoagland nutrient solution for 7 d and grown in an incubator under white fluorescent light (130–180 μmol m^−2 s^−1) with 16 h/8 h (L/D) at 28 °C for 1 week. Leaf segments of 2 cm were cut from middle part of third leaves of rice plants. Each segment was put in a well (in 24-well plates) containing 2 ml of 2.5 mM MES buffer with 0.05% Tween-20, and incubated at 30 °C in the dark for 7 d. After application of MPs, color change, chlorophyll content, ion leakage, and gene expression were monitored daily for 7 d.

Assay [1] has as its system artificially infested soil and pearl millet as a host. The assay can be described thus: Trial in Burkina Faso, boxes with artificially infested soil. As to conditions: 1 × 1 m^2 wooden boxes, to be published. It is filed as in vivo. From the text: This activity was around 17 times weaker than that of GR24, pointing to MP1 as a suitable candidate for the suicidal germination approach. Very recently, we have evaluated the activity of MP1 in a trial conducted in Burkina Faso, in which we used 1 × 1 m^2 wooden boxes filled with artificially infested soil and pearl millet as a host. […] Apart from these three compounds, we observed lower germination activity with P. ramosa seeds than with those of S. hermonthica.

The test system of the next assay is P. ramosa seeds. The assay can be described thus: P. ramosa seed germination bioassay. It is filed as in vivo, Phelipanche ramosa. As to conditions: 1.0 μM. The method, then: Parasitic weed seeds’ (S. hermonthica and P. ramosa) germination activity was studied as described previously ([Jamil et al., 2012]). Six pre-conditioned seed discs were placed in a 90 mm Petri dish containing a filter paper ring wetted with 0.9 ml sterile MilliQ water. Then 50 μl of SL analog solution (10^–5–10^–12 M) was applied on each of the six discs, for each concentration. GR24 solutions with equal concentrations and sterile MilliQ water were included as a positive and negative control, respectively. After application, seeds of S. hermonthica and P. ramosa were incubated in dark at 30 °C for 2 d and at 25 °C for 4 d, respectively. Germination (seeds with radicle emerging through the seed coat) was scored under a binocular microscope, and germination rate (%) was calculated.

In another assay the test system is Arabidopsis seedlings. The assay can be described thus: Arabidopsis hypocotyl elongation assay. Format: in vivo. As to conditions: 1.0 μM, continuous red light. The protocol: Sterilized Arabidopsis seeds were sown on half-strength MS (with 0.5% sucrose+1% agar, 0.5 g l^−1 MES, pH 5.7) plates supplemented with MPs or GR24 (at 1.0 μM). Plates were stored at 4 °C in darkness for 3 d. To initiate germination, plates were exposed to continuous white light for 24 h, then transferred to continuous monochromatic red light (20 μmol m^−2 s^−1, 22 °C) conditions for another 4 d. For hypocotyl length measurement, at least 30 seedlings were measured using the freely available ImageJ software (http://rsbweb.nih.gov/ij/) after taking digital photographs. A monochromatic red light source was applied as described previously ([Wu and Yang, 2010]). Light flow rates were measured using a Li250 quantum photometer (Li-Cor, Lincoln, NE, USA).

Each structure is given as a SMILES string. “Also recorded” adds a separate entry of the source.

As a reminder, the Kd is the free concentration of one partner at which half of the binding sites on the other are occupied at equilibrium, for simple one-to-one binding. A low value points to tighter binding. `CC1=CC(OC=C2C(=O)OC3c4ccccc4CC23)OC1=O` (stereo not shown) [GR24, reference compound] displayed a Kd on ShHTL7 of 440 ± 210 nM. The “high-tillering phenotype of SL-insensitive d3 mutant” value with rice d3 mutant is recorded as “neither MPs nor GR24 could restore the high-tillering phenotype”. Besides, in the assay on rice leaf segments, the “transcript level of senescence-associated gene Osl20” value is “striking increase”; the “transcript level of senescence-associated gene Osl295” value is “striking increase”; the “change in color of leaf segments, earlier than the control” value was “about 2 d”; the “chlorophyll content of leaf segments” value was “clear reduction”. For the same compound, the “ion leakage of leaf segments compared with the control” value with rice leaf segments is listed as “striking increase”.
In the case of `COC(=O)/C(=C/OC1C=C(C)C(=O)O1)c1ccc([N+](=O)[O-])cc1` (stereo not shown) [MP1, (E)-methyl 3-(4-methyl-5-oxo-2,5-dihydrofuran-2-yloxy)-2-(4-nitrophenyl)acrylate], in assay [1], the “germination activity in soil box trial” value was “significantly higher germination activity than GR24”. For the same compound, the “P. ramosa germination activity” value in the assay on P. ramosa seeds is “much higher activity; also recorded: quite similar to that of GR24”.
As for `COC(=O)/C(=C/OC1C=C(C)C(=O)O1)c1ccccc1` (stereo not shown) [MP3, (E)-methyl 3-(4-methyl-5-oxo-2,5-dihydrofuran-2-yloxy)-2-phenylacrylate], in the assay on rice leaf segments, the “transcript level of senescence-associated gene Osl20” value is “striking increase in their transcripts, which was more pronounced”; the “transcript level of senescence-associated gene Osl295” value is given as “striking increase in their transcripts, which was more pronounced”; the “change in color of leaf segments, earlier than the control” value is “about 2 d”; the “chlorophyll content of leaf segments” value is listed as “clear reduction”. Further, the “ion leakage of leaf segments compared with the control” value with rice leaf segments is given as “striking increase”.
As to `COC(=O)/C(=C/OC1C=C(C)C(=O)O1)c1ccc(Cl)cc1` (stereo not shown) [MP7], the “inhibition of hypocotyl growth” value in the assay with Arabidopsis seedlings is reported as “stronger inhibitory effect than GR24”. On ShHTL7, the equilibrium dissociation constant (Kd) was found to be 1150 ± 310 nM.

(Values after publication PMC5913645, “Methyl phenlactonoates are efficient strigolactone analogs with simple structure” (Journal of Experimental Botany, 2017).)
